{
  "source": "ChEMBL document CHEMBL1122982",
  "about": "“Conformational factors in cardiac glycoside activity” (1985)",
  "data": [
    {"organism": "Cavia porcellus", "assay": "Relative […] activity evaluated in guinea pig left atria.", "type": "functional", "values": [
      {"smiles": "C[C@]12CC[C@H](O)C[C@H]1CC[C@@H]1[C@@H]2CC[C@]2(C)[C@@H](C3=CC(=O)OC3)CC[C@]12O", "note": "(stereo in doubt; V) [DIGITOXIGENIN]", "Relative ionotropic activity": 1.2},
      {"smiles": "C[C@H]1O[C@H]2O[C@@H]3C[C@@H]4CC[C@@H]5[C@H](CC[C@]6(C)[C@@H](C7=CC(=O)OC7)CC[C@]56O)[C@@]4(C)C[C@H]3O[C@@]2(O)[C@@H](O)[C@H]1O", "Relative ionotropic activity": 1},
      {"smiles": "C[C@@H]1C[C@H](O)[C@]2(O)O[C@@H]3C[C@@]4(C)[C@@H](CC[C@@H]5[C@@H]4CC[C@]4(C)[C@@H](C6=CC(=O)OC6)CC[C@]54O)C[C@H]3O[C@@H]2O1", "note": "(stereo in doubt; form 2) [Gomphoside]", "Relative ionotropic activity": 0.2},
      {"smiles": "C[C@@H]1O[C@@H](O[C@H]2CC[C@@]3(C)[C@H](CC[C@@H]4[C@@H]3CC[C@]3(C)[C@@H](C5=CC(=O)OC5)CC[C@]43O)C2)[C@H](O)[C@H](O)[C@H]1O", "note": "(stereo in doubt; form 2)", "Relative ionotropic activity": 9},
      {"smiles": "C[C@@H]1O[C@@H](O[C@H]2CC[C@@]3(C)[C@@H](CC[C@@H]4[C@@H]3CC[C@]3(C)[C@@H](C5=CC(=O)OC5)CC[C@@]43O)C2)C[C@H](O)[C@@H]1O", "Relative ionotropic activity": 15},
      {"smiles": "C[C@]12CC[C@H](O)C[C@H]1CC[C@@H]1[C@@H]2CC[C@]2(C)[C@@H](C3=CC(=O)OC3)CC[C@]12O", "note": "(stereo in doubt) [DIGITOXIGENIN]", "Relative ionotropic activity": 1},
      {"smiles": "C[C@@H]1O[C@@H](O[C@H]2CC[C@@]3(C)[C@H](CC[C@@H]4[C@@H]3CC[C@]3(C)[C@@H](C5=CC(=O)OC5)CC[C@]43O)C2)[C@H](O)[C@H](O)[C@H]1O", "note": "(stereo in doubt; X)", "Relative ionotropic activity": 3},
      {"smiles": "C[C@@H]1CC(=O)[C@]2(O)O[C@@H]3C[C@@]4(C)[C@@H](CC[C@@H]5[C@@H]4CC[C@]4(C)[C@@H](C6=CC(=O)OC6)CC[C@]54O)C[C@H]3O[C@@H]2O1", "note": "[Didehydro Gomphoside]", "Relative ionotropic activity": 2.5},
      {"smiles": "C[C@@H]1O[C@@H](O[C@H]2CC[C@@]3(C)[C@H](CC[C@@H]4[C@@H]3CC[C@]3(C)[C@@H](C5=CC(=O)OC5)CC[C@]43O)C2)[C@H](O)[C@H](O)[C@H]1O", "note": "(stereo in doubt; form 1)", "Relative ionotropic activity": 22},
      {"smiles": "C[C@@H]1C[C@H](O)[C@]2(O)O[C@@H]3C[C@@]4(C)[C@@H](CC[C@@H]5[C@@H]4CC[C@]4(C)[C@@H](C6=CC(=O)OC6)CC[C@]54O)C[C@H]3O[C@@H]2O1", "note": "(stereo in doubt; form 1) [Gomphoside]", "Relative ionotropic activity": 23}
    ]}
  ]
}
